Data reported in publication PMC8401767, “Spectroscopic Studies of Quinobenzothiazine Derivative in Terms of the In Vitro Interaction with Selected Human Plasma Proteins. Part 1” (Molecules, 2021).
Counter-ions that a name gives are not always drawn.

Experiments:
[1] = biological target: T1, Human serum albumin (HSA) (Homo sapiens, UniProt P02768); test: intrinsic protein fluorescence quenching, Klotz plot; type: binding; conditions: λex 295 nm (Trp); pH 7.4, 0.05 M phosphate, 298 K; unit misprinted in table, L/mol by b49
T1 construct: gene ALB
Description: intrinsic protein fluorescence quenching, Klotz plot on Human serum albumin (HSA)

[2] = system: T2, α-1-Acid glycoprotein (AGP, orosomucoid); test: as above; type: binding, Homo sapiens; conditions: λex 295 nm (Trp); pH 7.4, 0.05 M phosphate, 298 K; unit misprinted in table, L/mol by b49
T2 construct: gene ORM1
Description: intrinsic protein fluorescence quenching, Klotz plot on α-1-Acid glycoprotein (AGP, orosomucoid)

T1 sequence (P02768 25-609): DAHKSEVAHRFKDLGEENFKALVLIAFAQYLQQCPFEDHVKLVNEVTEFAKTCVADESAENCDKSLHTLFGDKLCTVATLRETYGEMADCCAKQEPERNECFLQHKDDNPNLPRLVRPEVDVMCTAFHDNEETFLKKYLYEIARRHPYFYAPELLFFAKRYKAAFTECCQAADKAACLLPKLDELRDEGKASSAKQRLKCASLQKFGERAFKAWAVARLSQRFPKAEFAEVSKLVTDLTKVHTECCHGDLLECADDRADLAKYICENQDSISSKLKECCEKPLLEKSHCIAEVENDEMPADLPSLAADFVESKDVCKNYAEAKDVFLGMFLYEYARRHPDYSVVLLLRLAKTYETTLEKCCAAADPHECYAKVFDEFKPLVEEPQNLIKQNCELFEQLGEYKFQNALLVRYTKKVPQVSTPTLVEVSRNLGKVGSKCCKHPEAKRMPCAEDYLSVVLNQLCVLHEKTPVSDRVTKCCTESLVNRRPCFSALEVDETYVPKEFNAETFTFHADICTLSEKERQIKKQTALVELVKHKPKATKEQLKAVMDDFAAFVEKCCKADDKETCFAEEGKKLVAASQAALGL

SMILES: C[n+]1cc2c(c3ccccc31)Nc1ccccc1S2 [Salt1, 5-methyl-12(H)-chino[3,4-b][1,4]benzothiazinium chloride]
- λex 295 nm / (Ka. 10^4) ±SD * (mol.L^-1) [1]: 2.71 ± 0.01 ·10^4
- λex 295 nm / (Ka. 10^4) ±SD * (mol.L^-1) [2]: 7.86 ± 0.03 ·10^4
